In series [1] the test system is mutant eGFP gene in DLD-1-1 cells. The series can be described thus: eGFP gene correction (oligonucleotide-directed sequence alteration) in DLD-1-1 cells, FACS readout. The format is cell-based. The conditions noted are these: 0.2 μM MMS 24 hours before electroporation, 10 μg oligo.
In a further series the test system is DNA of DLD-1-1 cells. The experiment in a line: Pulsed-field gel electrophoresis of DNA damage (double strand breaks). The series is classed as cell-based. The conditions noted are these: 0.75 μM bleomycin or 0.2 μM MMS, 24 hours. The procedure:
The cells are released by trypsinization and melted in the agarose inserts. The agarose inserts are incubated in 0.5M EDTA—1% N-laurosylsarcosine—proteinase K (1 mg/ml) at 50° C. for 48 hrs and then washed four times in TE buffer prior to loading on a 1% agarose gel (Pulse-Field Certified Agarose, Bio-Rad, Hercules, Calif.) and DNA separation by pulsed-field gel electrophoresis is carried out for 24 hrs (Bio-Rad, 120° field angle, 60 to 240s switch time, 4 V/cm). The gel is subsequently stained with ethidium bromide and analyzed with AlphaImager™ 2200. (Alpha Innotech Corp., San Leandro, Calif.).
The effects of MMS and bleomycin on oligonucleotide-directed gene alteration are determined as follows. DLD-1-1 cells are seeded in 100 mm dishes at 2×10^6 cells per plate and immediately treated with 0.2 μM MMS or 0.75 μM bleomycin. The cells are then grown for 24 hours, until approximately 50% confluent, and washed twice with PBS. A portion of each population of cells is removed for DNA analysis by pulsed-field electrophoresis, as described in Example 1. The correcting oligo EGFP/72NT (10 μg) is then added and the cells are electroporated as in Example 3. Cells are then analyzed to determine the percentage of cells with corrected eGFP genes as described in Example 3.

For series [2], the system named is DLD-1-1 cells. The experiment in a line: Cell viability / cell death by propidium iodide FACS.
Protocol: Flow cytometry analysis: eGFP fluorescence of corrected cells is measured by a Becton Dickinson FACSCalibur™ flow cytometer (Becton Dickinson, Rutherford, N.J.). Cells are harvested 48 hrs after electroporation and resuspended in FACS buffer (0.5% BSA, 2 mM EDTA, 2 μg/ml propidium iodide in PBS). More specifically, the program is set for the appropriate cell size (forward scatter versus side scatter) and the population of single-cells is gated for analysis. Using the negative control (minus PI, minus GFP) the background fluorescence was set by positioning the cells in the 10^1 decade of the dot plot by adjusting the voltage for FL1 (GFP) and FL2 (PI). The composition is then set for multi-fluorochrome experiments using a GFP control sample containing no PI and increasing the compensation to bring the signal toward the FL1 parameter. Finally, the last control, PI and no GFP is used to increase the compensation to bring the signal toward the FL2 parameter. Samples of 50,000 cells each are analyzed and those cells being GFP positive and PI negative are scored as corrected cells.
For cells that were not previously treated with caffeine, caffeine is added to the media to a final concentration of 4 mM in the 60 mM dish immediately following electroporation (the “recovery phase”). For cells that were pre-treated with caffeine, there is no addition of caffeine during the recovery phase. After 24 hrs of recovery, the media is changed and caffeine (4 mM final concentration) is added back to the culture. After 48 hrs of recovery, the samples are read by FACS: eGFP fluorescence reflects gene alteration (correction), and propidium iodide (PI) staining reflects cellular viability.
Series [3] has as its system mutant eGFP gene in DLD-1-1 cells. The series can be described thus: eGFP gene correction (oligonucleotide-directed sequence alteration) in DLD-1-1 cells, FACS readout. The series is classed as cell-based. The conditions noted are these: for correction efficiency: cells synchronized by double thymidine block, then 10 mM thymidine 24 hours. The procedure: Cell line and culture conditions: DLD-1 cells are obtained from ATCC (American Type Cell Culture, Manassas, Va.). DLD-1 integrated clone 1 (DLD-1-1) is obtained by integration of the vector pEGFP-N3 containing a single point mutation (TAG) in the eGFP gene, as described in copending U.S. patent application Ser. No. 10/986,418, filed Nov. 10, 2004 (“Mammalian Cell Lines for Detecting, Monitoring, and Optimizing Oligonucleotide-Mediated Chromosomal Sequence Alteration”). Cells are grown in RPMI 1640 medium with 2 mM glutamine, 4.5 g/L glucose, 10 mM HEPES, 1 mM sodium pyruvate and supplemented with 10% FBS. Cells are maintained at 5% CO2, 37° C. and under selection in 200 μg/ml G418 (Gibco, Invitrogen Co., Carlsbad, Calif.).
eGFP gene correction: Cells grown in complete medium supplemented with 10% FBS are trypsinized and harvested by centrifugation. The cell pellet is resuspended in serum-free medium at a density of 1×10^6 cells/100 μl and transferred to a 4 mm gap cuvette (Fisher Scientific, Pittsburgh, Pa.). The oligonucleotide is then added at a concentration of 4 μM and the cells are electroporated (LV, 250V, 13 msec, 2 pulses, 1 second interval) using a BTX ECM830 apparatus (BTX, Holliston, Mass.). The cells are then transferred to a 60 mm dish containing fresh medium supplemented with 10% FBS and incubated for 48 hrs at 37° C. before harvesting for FACS analysis.
The percentage of converted cells in a whole population is then calculated by CellQuest™ (Becton Dickinson) and GFP/PI programs. The correction efficiency is determined by dividing the number of eGFP positive cells by the number of cells analyzed in each experiment (usually 50,000 cells). Each clone is tested three times to determine the standard deviation of the correction efficiency, with standard deviation calculated using Microsoft Excel.
The experimental strategy involves the introduction of oligonucleotides into DLD-1-clone 1 cells by electroporation followed by phenotypic readout of the corrected eGFP gene, 48 hours later. The correcting oligonucleotide (EGFP3S/72NT) is 72 bases in length (72-mer), complementary to the non-transcribed strand of the mutant eGFP gene but designed to create a single mismatch in the third base of codon 67 (see FIG. 1A). It directs conversion of a TAG→TAC codon which enables phenotypic expression of eGFP, which can be detected by FACS. FIG. 1B outlines the sequence of the target gene, the 72-mer and a nonspecific 74-mer used as a control.
Oligonucleotide-Directed Sequence Alteration: The resulting synchronized populations of cells, and asynchronous controls, are grown in complete medium supplemented with 10% FBS and trypsinzed and harvested by centrifugation at 1500 rpm for 5 minutes. The cell pellet is resuspended in fresh serum-free medium at a density of 2×10^6 cells/100 μl. The entire cell suspension is mixed with 20 μg of EGFP/72NT and transferred into a 4 mm gap cuvette (Fisher Scientific, Pittsburgh, Pa., USA) followed by electroporation with two 250V pulses, each 13 ms in duration, with one second between pulses, unipolar.
Cells are incubated at room temperature for 30 min. […] Frequency of converted cells are calculated by CellQuest™ and GFP/PI programs.
Double Thymidine Block: Cells are synchronized in G1 or at the G1/S border by a double thymidine block. Twenty-four hours prior to the addition of any agent (HU, etc.), cells are plated at a density of 0.5×10^6 cells per 100 mm dish, followed by incubation in 2 mM thymidine (Sigma) for 16 hrs, washed and released in fresh medium for 10 hrs, then incubated in 2 mM thymidine for an additional 15 hrs.
FACS is then used to analyze 50,000 cells from each population to determine the percentage of cells expressing functional eGFP, as described in Example 1.

Series [4] deals with DLD-1-1 cells. The series can be described thus: Cell cycle analysis (DNA content by FACS), cells in S phase. The format is cell-based. On the procedure:
(§1) For cell cycle analysis, 1×10^6 cells are plated 24 hrs before the treatment with drugs and after 24 hrs of treatment, cells are trypsinized, resuspended in 300 μl cold PBS and fixed by adding 700 μl cold ethanol. Cells are then resuspended in 1 ml of PBS containing 500 µg/ml RNaseA and […] propidium iodide and analyzed for DNA content.
The effect of cell cycle on the efficiency of ODSA is assessed by synchronizing a population of DLD-1-1 cells with mimosine, which arrests cells in early S phase, and serum starvation. Cells are seeded at a density of 0.8×10^6 per 100 mm dish, attached for 20 hours and then cultured in RMPI-1640 medium containing 0.2% fetal bovine serum (FBS). These cells are grown for 48 hours followed by treatment with 0.1 mM mimosine (Sigma, St. Louis, Mo., USA) for 20 hours. Cell are washed twice with PBS and released at various times into fresh medium complemented with 10% FBS before electroporation. Cells are rinsed once with PBS, trypsinized and harvested by centrifugation and resuspended in PBS containing 10 μg/ml propidium iodide, 0.03% Triton-100 and 1 mg/ml RNase. Cells are incubated at room temperature for 1 hour before the measurement of DNA content by FACSCalibur™ flow cytometer. The percentage of cells at various stages of the cell cycle is determined by ModFit L™ software (Verity Software House, Inc., Topsham, Me., USA).
(§2) The resulting cells are then either analyzed by FACS, or the percentage of cells in S phase is determined by BrdU incorporation. FIG. 8 presents the results of both sets of experiments.
For orientation: In flow cytometry, cells or beads pass a laser one at a time.

Series [5] has as its system DLD-1-1 cells. The experiment in a line: BrdU incorporation (actively replicating forks). The format is cell-based. The conditions noted are these: 24 hour treatment; 500 μM ddC, ddI or AraC (FIG. 17B). On the procedure: as §1, §2
As stated above, the lack of stimulation observed in cells treated with AraC could be explained by the reduced number of cells passing through S phase or the absence of actively replicating forks. If true, we might predict that a rise in the gene repair frequency would appear if the cells are released from the AraC block and replication forks are allowed to restart prior to the electroporation of the oligonucleotide. We test this prediction by treating the cells with AraC for 24 hrs and then releasing them by washing out the drug at specific times. We measure the level of BrdU incorporation at the time of electroporation and evaluate the frequency of correction 48 hrs later.
On the technique in general: Uptake of a labelled nucleoside into DNA is a usual measure of proliferation.

Series [6] relates to α-galactosidase A (GLA) activity in Fabry's cell line DMN-1. The series can be described thus: GLA activity in Fabry's cells after ODSA. The conditions noted are these: cells synchronized by DTB, 500 μM ddC. The series is classed as cell-based, human. The text has this: (§3) Cell line DMN-1, a human fibroblast cell line derived from a human patient with Fabry's disease, is obtained from the National Institutes of Health (NIH). These cells are used to measure the efficiency of correction of a mutant allele of α-galactosidase A (GLA) using methods of the present invention. The specific disease-causing mutation in the Fabry's cell line used herein is A143P, caused by a G→C mutation in the gene. See Branton et al., Medicine (Baltimore) (2002) 81(2): 122-38.
(§4) All four oligonucleotides are used to effect ODSA substantially as described in Example 1, with the exception that cells are transfected with oligonucleotides, rather than electroporated. Oligos are added at 5 μg, 10 μg or 30 μg per reaction. After ODSA is performed, cells are cultured and assayed for GLA activity according to the method of Brady, as described in Medin et al., Proc. Natl. Acad. Sci. (USA) (1996) 93:7917-22, the disclosure of which is incorporated herein by reference in its entirety. The GLA activity is used as a measure of gene correction by comparing the activities in treated versus untreated cultures. The correction efficiency is subsequently confirmed by sequencing of the locus of mutation in a number of treated cells.
[…] Unlike the experiments involving correction of eGFP in DLD-1-1 cells described in Example 1, however, certain of the agents (VPA, caffeine, TSA) in the experiments in this example are not added before transfection, but are instead added only after transfection, during the recovery period.
(§5) The means of introducing oligonucleotide into the target cells also differs from previous examples, with transfection in the presence of the transfection enhancing agent FuGENE™ 6 (FG) (Roche Diagnostics Corp., Indianapolis, Ind., USA) being used rather than electroporation. Each transfection reaction includes 100 μl of target cells and 12 μl of FG unless otherwise indicated, despite the fact that FG is not explicitly listed for each datapoint in the relevant figures. Otherwise the procedures used in the DLD-1-1 experiments and the Fabry's experiments are similar.
The results of a further series of experiments are shown at FIG. 15D, where the data are presented as GLA activity as nanomolar (nM) concentration of the product of the GLA assay generated per hour per unit protein concentration (as are the data in FIGS. D and E).

The test system of series [7] is mutant allele (A143P) of α-galactosidase A (GLA) in Fabry's cell line DMN-1. The series can be described thus: Correction efficiency of mutant GLA allele in Fabry's cells. The format is cell-based, human. The settings on record: VP16 1-50 μM; thymidine 2-50 mM; with or without correcting oligonucleotide.
From the text: as §3, §4
As in the previous examples, target cells are treated with HU, VP16 or CPT prior to transfection with the correcting oligonucleotide. Unlike the experiments involving correction of eGFP in DLD-1-1 cells described in Example 1, however, certain of the agents (VPA, caffeine, TSA) in the experiments in this example are not added before transfection, but are instead added only after transfection, during the recovery period.
as §5
The same experiment as described with respect to FIG. 15A is repeated in the presence of various agents and treatments to evaluate whether embodiments of the present invention can increase gene alteration (in this example, correction) efficiency. […] Bars represent the correction efficiencies observed in the various experiments. Unless otherwise indicated, all experiments include 10 μg of 49T/gg in addition to any other agent used to treat the cells.

These results are taken from patent US20070072815A1, “Methods and kits to increase the efficiency of oligonucleotide-directed nucleic acid sequence alteration” (priority 2004, published 2007).

Entries after “also recorded” stand apart in the source; their conditions may differ.

For the molecule `COS(C)(=O)=O` [MMS, methyl methanesulfonate], the “effect on correction efficiency” value in series [1] is “more than doubles the correction efficiency; also recorded: doubles correction efficiency”. The DNA damage entry in the series on DNA of DLD-1-1 cells is “effect DNA damage”. For the same molecule, the “effect on cell death” value with DLD-1-1 cells [2] (0.2 μM MMS) is “Cell death is not increased”.

Take `Nc1ccn([C@H]2CC[C@@H](CO)O2)c(=O)n1` [ddC, 2′3′-dideoxycytidine]: in series [3] (cells treated with ddC alone (FIG. 20)), the correction levels is listed as 2.9%. In series [3] (ddC 24 hrs before electroporation, 500-750 μM), the “effect on correction efficiency (increase)” value is given as “more than two-fold; also recorded: approximately two- to three-fold; also recorded: dose-dependent increase”. In the series with DLD-1-1 cells [4] (24 hour treatment, 500 μM ddC, ddI or AraC (FIG. 17A)), the “cells in S phase” value was 70%. In addition, the “BrdU uptake (cells actively incorporating DNA bases)” value with DLD-1-1 cells [5] is on record as 71.8%. Moreover, in the series on DLD-1-1 cells [2] (ddC levels higher than 750 μM (data not shown)), the toxicity entry is reported as “cellular toxicity”. The “increase of GLA activity compared with untreated cells” value in series [6] was “approximately two-fold; also recorded: doubles DLA activity”.

In the case of `Cc1cn([C@H]2C[C@H](O)[C@@H](CO)O2)c(=O)[nH]c1=O` [thymidine], the “correction efficiency in synchronized cells relative to asynchronous cells” value in series [3] (1 mM HU or 10 mM thymidine, DTB synchronized vs asynchronous) is “over seven times”. The “effect of synchronization by double thymidine block on correction efficiency” value in series [3] (2 mM thymidine 16 hrs, release 10 hrs, 2 mM thymidine 15 hrs, no other agent) was “increases correction efficiency”. Also, in series [3] (10 mM thymidine 24 hours), the “effect on correction efficiency in asynchronous cells” value is listed as “does not enhance correction efficiency”. Moreover, the correction efficiency in series [3] is on record as 7.5%; in series [3] (listed as Thymidine), “over 7%”. For the same molecule, in series [7], the “effect on correction efficiency” value is given as “little effect on correction efficiency”. In addition, the “proportion of cells in S phase” value in the series on DLD-1-1 cells [4] (after double thymidine block) was determined as 1.5%.

Take bleomycin: the DNA damage entry with DNA of DLD-1-1 cells is listed as “effect DNA damage”.
